Test results: patent US20170368018A1, “USE OF ELLAGIC ACID DIHYDRATE IN PHARMACEUTICAL FORMULATIONS TO REGULATE BLOOD GLUCOSE LEVELS” (HALO LIFE SCIENCE, LLC, priority 2014, published 2017)

Columns and labels:
[1] = system: female SWV mice with STZ induced diabetes; experiment: Weight loss and blood glucose in mice with STZ induced diabetes; type: in vivo, mouse; details: STZ diabetic mice, thirty days
Protocol: Weight loss and blood glucose in diabetes induced mice treated with ellagic acid was determined and weight loss and blood glucose in mice treated with ellagic acid dihydrate may be determined by the following procedures. Induction of Diabetes: Diabetes is induced in mice by intraperitoneal injection with Streptozotocin (STZ 40 mg/kg) daily for five days. The mice are considered hyperglycemic when the glucose level of each dam is above 200 mg/dL. The mice are fasted for 4 hours before STZ injection and glucose measurement. Treatment: The mice are treated daily for thirty days with ellagic acid or control in the form of a supplemental pill homogenized and suspended in 25% water solution of Cremophor EL. The mice are treated for one month via gavage using the human equivalent dose of 122.4 mg pill/kg of subject (40.6 mg ellagic acid/kg of the subject), the human equivalent does of 40.6 mg ellagic acid/kg of the subject using 98% pure ellagic acid, or control vehicle (25% water solution of Cremophor EL). The human equivalent dose is calculated as described in Example 8. Treatments would start two weeks after the last STZ injection in which hyperglycemia is confirmed in the diabetic mice. The mice would be weighed daily and glucose levels would be measured in fasted animals every five days.

[2] = system: MEF cells; experiment: Glucose uptake, 2-NBDG labeling, flow cytometry, MEFs; type: cell-based, mouse
Protocol: Cellular assays were performed using mouse myoblast C2C12 cells and MEF cells. […] Increased glucose uptake was indicated as increasing signal of 2-NBDG ([…]) in cells. Glucose uptake assays were carried out in a final incubation volume of 50 μl consisting of, 2-NBDG), (100 μM) in 1× Phosphate Buffered Saline w/Ca+, Mg+ (PBS++). The same buffer was used for washing cells. Insulin was used as a positive control. All testing compounds were prepared in […] and diluted 1:100 for a final concentration of 0.1% DMSO (vehicle). Cells were culture to 70-90% confluence and then washed twice with PBS++. Cells were incubated for 30 minutes at 37° C. in PBS++. Nuclear stain, HCS CellMask stain (blue, Invitrogen), and/or testing compounds (ellagic acid dihydrate, insulin, or vehicle) were added. Cells were incubated for 30 min at 37° C. Cells were washed twice with PBS++and incubated with 2-NBDG for 10 minutes. Cells were washed thrice with PBS++and then imaged in PBS++. Alternatively, the final PBS wash was removed and cells were incubated with Accutase (Invitrogen) for 10 min at 37° C., neutralized with 10% FBS in 1× PBS, and analyzed by flow cytometry. An additional experiment was performed to measure glucose uptake in C2C12 cells exposed to metformin, insulin and ellagic acid dihydrate 2 (batch 2). FIG. 5C. Glucose uptake in ellagic acid dihydrate treated cell culture was measured and compared to glucose uptake under insulin or ellagic acid treatment. […] Flow cytometry results were run in triplicate with 1000 cells per batch.

[3] = system: MEF cells; experiment: Glucose uptake, 2-NBDG labeling, high-content imaging (Operetta), MEFs; type: cell-based, mouse
Protocol: Increased glucose uptake was indicated as increasing signal of 2-NBDG ([…]) in cells. Glucose uptake assays were carried out in a final incubation volume of 50 μl consisting of, 2-NBDG), (100 μM) in 1× Phosphate Buffered Saline w/Ca+, Mg+ (PBS++). The same buffer was used for washing cells. Insulin was used as a positive control. All testing compounds were prepared in 10% DMSO and diluted 1:100 for a final concentration of 0.1% DMSO (vehicle). Cells were culture to 70-90% confluence and then washed twice with PBS++. Cells were incubated for 30 minutes at 37° C. in PBS++. Nuclear stain, HCS CellMask stain (blue, Invitrogen), and/or testing compounds (ellagic acid dihydrate, insulin, or vehicle) were added. Cells were incubated for 30 min at 37° C. Cells were washed twice with PBS++and incubated with 2-NBDG for 10 minutes. Cells were washed thrice with PBS++and then imaged in PBS++. Alternatively, the final PBS wash was removed and cells were incubated with Accutase (Invitrogen) for 10 min at 37° C., neutralized with 10% FBS in 1× PBS, and analyzed by flow cytometry. An additional experiment was performed to measure glucose uptake in C2C12 cells exposed to metformin, insulin and ellagic acid dihydrate 2 (batch 2). FIG. 5C. Glucose uptake in ellagic acid dihydrate treated cell culture was measured and compared to glucose uptake under insulin or ellagic acid treatment. […] Flow cytometry results were run in triplicate with 1000 cells per batch.

[4] = system: mice; experiment: Activity level in mice; type: in vivo, mouse; details: observation by the Applicant in treated mice
Text: Activity levels in mice treated with ellagic acid dihydrate may be quantified by several procedures, such as those outlined in Turri, M. et al.; QTL Analysis Identifies Multiple Behavioral Dimensions in Ethological Tests of Anxiety in Laboratory Mice; Current Biology; 2001; 11(10): 725-734. Two examples of procedures taught therein follows. Gross Locomotor Activity in Home Cage: Mice are caged singly several days prior to home cage activity monitoring and subsequent testing. Activity in home cages are measured during the first 2 hours of the dark cycle on two consecutive days. Two infrared photo emitter-detector pairs, located outside the clear plastic home cage that divide the cage into three equal areas, are used to record gross locomotor activity on the floor of the home cage as the animal breaks the photo beams. The beam-break activity score consists of the square root of the number of beam breaks for each detector summed across the two test days. Magnitude of Activity in Home Cage: Mice are caged singly several days prior to home cage activity monitoring and subsequent testing. Activity in home cages are measured during the first 2 hours of the dark cycle on two consecutive days. An infrared motion detector located above the top of the home cage is employed to converts all motion sensed within the home cage into arbitrary units, based on the magnitude of activity detected.

[5] = system: female SWV mice; experiment: Weight loss and blood glucose in mice, thirty days daily gavage; type: in vivo, mouse; details: for body weight lost on average: supplemental pill, gavage daily
Protocol: Weight loss and blood glucose in mice treated with ellagic acid was determined and weight loss and blood glucose in mice treated with ellagic acid dihydrate may be determined by the following procedure. Mice are treated daily for thirty days with ellagic acid or control in the form of a supplemental pill homogenized and suspended in 25% water solution of Cremophor EL. The mice are treated via gavage using the human equivalent dose (LD) of 122.4 mg pill/kg of subject (40.6 mg ellagic acid/kg of the subject), 10× higher dose (HD) of 1224 mg pill/kg of the subject (406 mg ellagic acid/kg of the subject), or control vehicle (25% water solution of Cremophor EL). The LD and HD dose amounts are calculated based on the following assumptions: a human dose is one 603 mg (200 mg ellagic acid) pill/day, taken orally; the average weight of a person is 60 kg, thus, the average dose for a human equals approximately 9.95 mg of the pill (3.3 mg ellagic acid)/kg daily; a mouse equivalent dose requires 12.3 times the human dose per kg. The mice are weighed and treated daily, and blood glucose level are measured every two days for a total one month period.

[6] = system: p44/42 MAPK / Phos p44/42 MAPK in C2C12 cells; experiment: p44/42 MAPK:phos p44/42 MAPK ratio by immunocytochemistry, high-content imaging; type: cell-based, mouse; details: C2C12, treated 30 minutes, 0.04 nM, FIG. 9
Protocol: Stimulation of AKT pathways and MAPK pathways in ellagic acid dihydrate, metformin, and insulin treated cell cultures was performed. Insulin stimulates glucose uptake into cells by increasing GLUT4 activation, and AKT, specifically phos-AKT, signaling alters GLUT4 translocation. […] Cellular assays were performed using mouse myoblast C2C12 cells. Relative protein levels of AKT:phos AKT and p44/42 MAPK:phos p44/42 MAPK were determined.
Serum starved cells (1 hr) were treated for 30 minutes with each of the tested compounds. Ratios of phosphorylated to non-phosphorylated proteins were determined using immunocytochemistry labeling (anti-AKT, anti-Phos AKT; or anti-p44/42 MAPK, anti-Phos p44/42 MAPK) on a high-content imaging system (Operetta, Perkin Elmer) using the fluorescent signal of anti-rabbit Alexa 647. Increased phosphorylation is indicated as decrease in signal of AKT:Phos AKT ratio (log2 scale) and p44/42 MAPK:Phos p44/42 MAPK ratio (log2 scale) relative to vehicle treated cells.

[7] = system: AKT / Phos AKT in C2C12 cells; experiment: AKT:phos AKT ratio by immunocytochemistry, high-content imaging; type: cell-based, mouse; details: C2C12, serum starved 1 hr, treated 30 minutes, 4 nM-4 μM, FIG. 8
Protocol: Stimulation of AKT pathways and MAPK pathways in ellagic acid dihydrate, metformin, and insulin treated cell cultures was performed. Insulin stimulates glucose uptake into cells by increasing GLUT4 activation, and AKT, specifically phos-AKT, signaling alters GLUT4 translocation. […] Cellular assays were performed using mouse myoblast C2C12 cells. […] Serum starved cells (1 hr) were treated for 30 minutes with each of the tested compounds.

[8] = system: mouse myoblast C2C12 cells; experiment: Glucose uptake, 2-NBDG labeling, flow cytometry, C2C12; type: cell-based
Protocol: Cellular assays were performed using mouse myoblast C2C12 cells and MEF cells. […] Increased glucose uptake was indicated as increasing signal of 2-NBDG ([…]) in cells. Glucose uptake assays were carried out in a final incubation volume of 50 μl consisting of, 2-NBDG), (100 μM) in 1× Phosphate Buffered Saline w/Ca+, Mg+ (PBS++). The same buffer was used for washing cells. Insulin was used as a positive control. All testing compounds were prepared in 10% DMSO and diluted 1:100 for a final concentration of 0.1% DMSO (vehicle). Cells were culture to 70-90% confluence and then washed twice with PBS++. Cells were incubated for 30 minutes at 37° C. in PBS++. Nuclear stain, HCS CellMask stain (blue, Invitrogen), and/or testing compounds (ellagic acid dihydrate, insulin, or vehicle) were added. Cells were incubated for 30 min at 37° C. Cells were washed twice with PBS++and incubated with 2-NBDG for 10 minutes. Cells were washed thrice with PBS++and then imaged in PBS++. Alternatively, the final PBS wash was removed and cells were incubated with Accutase (Invitrogen) for 10 min at 37° C., neutralized with 10% FBS in 1× PBS, and analyzed by flow cytometry. An additional experiment was performed to measure glucose uptake in C2C12 cells exposed to metformin, insulin and ellagic acid dihydrate 2 (batch 2). FIG. 5C.

[9] = system: GLUT4-GFP in mouse myoblast C2C12 cells; experiment: Localization of glucose transporter GLUT4-GFP, time-lapse confocal microscopy; type: cell-based; details: C2C12, 4000 nM
Protocol: Induction of glucose transporter, GLUT-4, in ellagic acid dihydrate treated cell cultures was studied. Cellular assays were performed using mouse myoblast C2C12 cells. The cells were infected with a fusion glucose transporter 4 green fluorescent protein (GLUT4-GFP). This protein allows the visualization of GLUT4 by imaging the GFP under fluorescent time-lapse microscopy. Frames were compiled to produce time-lapse images of cellular changes with no treatment or treatment with insulin. The localization of glucose transporter (GLUT4-GFP) was performed in final incubation volume of 505 μL, consisting of 500 μL of Hank's Buffer (Invitrogen) and 5 μl of tested compounds. Insulin was used as positive controls and vehicle (0.1% DMSO) as the negative control. All test compounds were prepared in 10% DMSO and diluted 1:100 for a final concentration of 0.1% DMSO (vehicle). The cells were rinsed in Hank's Buffer thrice and then incubated in Hank's Buffer at 37° C. for one hour. The test compounds were added (ellagic acid dihydrate, insulin, or vehicle) and the cells were imaged using laser-confocal microscopy (Leica TCS SP5 X) with FITC fluorescent filters to determine changes in GLUT4-GFP localization. Time-lapse images (TIF) were collected and post-processed using Image-J (NIH) for video construction.

Molecule | body weight lost on average ([1]; human equivalent dose, daily) | mean glucose level values, treated versus control mice [1] | glucose uptake per unit dose ([2]; in vitro conditions, summary statement) | dose effect for increasing glucose uptake [3] | activity levels [4] | blood glucose ([5]; all treatments (LD, HD) compared to control) | body weight lost on average ([5]; 10× higher dose (HD, 406 mg ellagic acid/kg)) | body weight lost on average ([5]; human equivalent dose (LD, 40.6 mg ellagic acid/kg)) | p44/42 MAPK:Phos p44/42 MAPK ratio relative to vehicle treated cells [6] | AKT:Phos AKT ratio (log2 scale) relative to vehicle treated cells [7] | increase in glucose uptake in myoblasts relative to fibroblasts ([8]; C2C12 (FIGS. 5A, 5B) versus MEFs (FIGS. 4A, 4B)) [×] | dose effect for increasing glucose uptake ([8]; C2C12, flow cytometry, 4 μM-0.04 nM) | glucose uptake (2-NBDG signal) relative to vehicle ([8]; C2C12, flow cytometry, FIG. 5A) | increased glucose uptake relative to vehicle treated cells ([2]; 400 nM exposure, fibroblasts, FIG. 4B) [%] | dose effect for increasing glucose uptake ([2]; MEFs, flow cytometry, 4 μM-0.04 nM) | glucose uptake (2-NBDG signal) relative to vehicle ([2]; MEFs, flow cytometry, FIG. 4A) | p44/42 MAPK:Phos p44/42 MAPK ratio relative to vehicle treated cells ([6]; 400 nM) | glucose uptake (signal of 2-NBDG) in comparison to vehicle [3] | GLUT4-GFP around the cell nucleus [9] | ruffling of filopodia at the surface of the cell [9]
O=c1oc2c(O)c(O)cc3c(=O)oc4c(O)c(O)cc1c4c23 [ellagic acid] | 11.7 % of body weight | no significant differences | little to no glucose uptake per unit dose | no such dose effect | increased activity levels | Normal levels of blood glucose | 10.4 % of body weight | 8.9 % of body weight |  |  |  |  |  |  |  |  |  |  |  | 
CN(C)C(=N)N=C(N)N [metformin] |  |  |  |  |  |  |  |  | increased the ratio of p44/42 MAPK | increase in AKT relative to phosphorylation of AKT |  |  |  |  |  |  |  |  |  | 
insulin: Insulin was used as a positive control [reference compound] |  |  |  | showed a dose effect |  |  |  |  |  | −0.5 | ~4 | showed a dose effect | significant increase | 32 | showed a dose effect | significant increase | increase in p44/42 MAPK | showed an increase in glucose uptake | decrease in GLUT4-GFP around the cell nucleus | rapid production of numerous projections
